{"source": "patent US20170029531A1", "about": "“INHIBITION OF LACTATE DEHYDROGENASE 5 (LDH-5) BINDING, INCORPORATION, INTERNALIZATION AND/OR ENDOCYTOSIS TO IMMUNE CELLS” (Seattle Children's Hospital (dba Seattle Children's …, priority 2014, published 2017)", "key": {"[1]": {"test_system": "primary human NK cells", "experiment": "NKG2D expression and CD107a degranulation of primary human NK cells after incubation with LDH or lactate", "format": "cell-based", "details": "LDH 50 ug/mL or lactate 20 mM; 12 hour (NKG2D, NKp46) or 6 hour after IL-2 (CD107a)", "excerpt": "FIG. 2. Biochemical purification of tumor-derived Lactate Dehydrogenase, expression in glioma cell lines and verification of LDH-mediated induction of NKG2D ligands on monocytes. (Panel A) Protein purification strategy. […] of U87 glioblastoma cell line supernatant were subjected to ammonium sulfate precipitation. Active fractions were passed over a phenyl Sepharose column and active fractions were then subjected to size exclusion (Superdex 200), followed by ion exchange (MonoS) before Mass Spectroscopy (MS) analysis. (Panel B) Following separation by chromatography, fractions were dialyzed into PBS and cultured with MHD (healthy monocytes) for 18 hours. Whole cell mRNA was reverse transcribed, and induction of MICB and ULBP-1 was analyzed relative to media alone controls. […] (Panel C) mRNA isolated from PBMC of healthy donors, 293T cells (as negative controls), and U87, U251, and SF767 glioma cell lines were analyzed for expression of LDHA and LDHB by qPCR. (Panel D) A 1:10 dilution of fresh, unfrozen glioblastoma cell line supernatants was analyzed for total LDH enzymatic activity and expressed as OD 495 nm. […] Eighteen hours later, mRNA was isolated and analyzed for MICA, MICB, and ULBP-1 by qPCR. […] Eighteen hours later, mRNA was isolated and analyzed for MICA, MICB and ULBP-1 by qPCR. […] Eighteen hours later, MICB (black bars) and ULBP-1 (gray bars) were measured by qPCR. […]"}, "[2]": {"test_system": "U87", "experiment": "U87 mitochondrial function and viability after overnight LDH5", "format": "cell-based", "description": "FIG. 30. U87 mitochondrial function. […] U87 were treated overnight with LDH5 then with controls 100 uM FCCP (depolarizer) or 200 ng/mL staurosporine (hyperpolarizer) for 10 min. Cells were then loaded with the mitochondrial membrane potential sensitive dye Mitotracker CMXRos for 15 min then fixed in 2% PF. Fluorescence intensity was measured by flow cytometry.\nFIG. 31. U87 mitochondrial function. […] U87 were treated overnight with LDH5. Cells were fixed in 2% PF and immunostained with an anti-mitochondrial antibody and phalloidin (actin) Mitochondrial and cell surface area were calculated by Nuance software.\nFIG. 32. U87 mitochondrial function. […] U87 were treated overnight with LDH5 then with 200 ng/mL staurosporine for 5 or 24 hours. Cells were then trypsinized, stained with Annexin 594 and analyzed by flow cytometry.\nExperimental wells were pulsed with 50 ug/mL LDH-A488 for 24 hours as indicated (control wells received no LDH) at 37° C. Cells were treated for 2 min with 0.5M acetic acid+150 mM NaCl (pH 2.5), followed by 4 subsequent washes in RPMI+10% FBS. […] (See FIGS. 31-32)."}, "[3]": {"test_system": "Tumor cells", "experiment": "LDH-5 internalization by tumor cells, flow cytometry (FIGS. 16-19)", "format": "cell-based", "details": "FIG. 16", "description": "FIG. 17. Tumor cells internalize LDH-5, which can be reduced by antibody blocking. 10 ug/ml of LDH5 specific monoclonal antibody was added to cells 1 hour prior to culture with LDH5 as described above and evaluated for internalization using flow cytometry to evaluate fluorescence.\nFIG. 19. LDH-5 internalization is receptor mediated and Clathrin dependent. LDH5 internalization is reduced with receptor mediated endocytosis inhibitors.\nLDH5 internalization is reduced with receptor mediated endocytosis inhibitors. This supports that internalization is mediated by a specific receptor, as opposite to bulk phagocytosis."}, "[4]": {"experiment": "LDH activity after freeze/thaw (colorimetric LDH activity assay)", "format": "physicochemical", "details": "FIG. 12", "description": "Supernatants and patient sera were analyzed for LDH enzymatic activity using a commercially available colorimetric assay according to the manufacturer's instructions (Sigma-Aldrich). Standard curves were generated using purified native LDH5."}, "[5]": {"details": "U87 treated overnight with LDH5"}}, "data": [{"substance": "LDH5: purified native lactate dehydrogenase isoenzyme 5, alpha only tetramer; fluorescently labeled in uptake tests", "values": [{"measurement": "NK cell NKG2D expression or degranulation", "setting": "[1]", "result": "neither lactate nor LDH-5 alone directly impacted"}, {"measurement": "Viability / staurosporine induced apoptosis (Annexin)", "setting": "[2]; U87 overnight LDH5, then 200 ng/mL staurosporine for 5 or 24 hours", "result": "does not reduce viability, nor rescue from staurosporine induced apoptosis"}, {"measurement": "Mitochondrial membrane potential (Mitotracker CMXRos)", "setting": "[2]; [5]", "result": "depolarizes mitochondrial membrane"}, {"measurement": "Mitochondrial surface area", "setting": "[2]; [5]", "result": "does not change"}, {"measurement": "Internalization of LDH-5 by tumor cells", "setting": "[3]", "result": "internalize"}, {"measurement": "LDH-5 activity following freeze/thaw", "setting": "[4]", "result": "significantly reduced"}]}]}
